Source: ChEMBL document CHEMBL5385847, “Design, synthesis and biological evaluation of a new class of 7H-pyrrolo[2,3-d]pyrimidine derivatives as Mps1 inhibitors for the treatment of breast cancer” (Eur J Med Chem, 2023)
The source made the active and inactive calls. The rule behind the calls is not given here.

Columns and labels:
4T1 [1] = assay: Induction of apoptosis in 4T1 cells assessed as early apoptotic cells at 1 uM incubated for 48 hrs by Annexin V-FITC/PI staining based flow cytometry (reference value: 0.32 %); type: functional, Mus musculus
[2] = target: Tyrosine-protein kinase JAK2 (Homo sapiens) (UniProt O60674); assay: Inhibition of human JAK2 at 1 uM by KINOMEscan assay relative to control
Chain of Tyrosine-protein kinase JAK2 (Homo sapiens) (O60674 whole entry): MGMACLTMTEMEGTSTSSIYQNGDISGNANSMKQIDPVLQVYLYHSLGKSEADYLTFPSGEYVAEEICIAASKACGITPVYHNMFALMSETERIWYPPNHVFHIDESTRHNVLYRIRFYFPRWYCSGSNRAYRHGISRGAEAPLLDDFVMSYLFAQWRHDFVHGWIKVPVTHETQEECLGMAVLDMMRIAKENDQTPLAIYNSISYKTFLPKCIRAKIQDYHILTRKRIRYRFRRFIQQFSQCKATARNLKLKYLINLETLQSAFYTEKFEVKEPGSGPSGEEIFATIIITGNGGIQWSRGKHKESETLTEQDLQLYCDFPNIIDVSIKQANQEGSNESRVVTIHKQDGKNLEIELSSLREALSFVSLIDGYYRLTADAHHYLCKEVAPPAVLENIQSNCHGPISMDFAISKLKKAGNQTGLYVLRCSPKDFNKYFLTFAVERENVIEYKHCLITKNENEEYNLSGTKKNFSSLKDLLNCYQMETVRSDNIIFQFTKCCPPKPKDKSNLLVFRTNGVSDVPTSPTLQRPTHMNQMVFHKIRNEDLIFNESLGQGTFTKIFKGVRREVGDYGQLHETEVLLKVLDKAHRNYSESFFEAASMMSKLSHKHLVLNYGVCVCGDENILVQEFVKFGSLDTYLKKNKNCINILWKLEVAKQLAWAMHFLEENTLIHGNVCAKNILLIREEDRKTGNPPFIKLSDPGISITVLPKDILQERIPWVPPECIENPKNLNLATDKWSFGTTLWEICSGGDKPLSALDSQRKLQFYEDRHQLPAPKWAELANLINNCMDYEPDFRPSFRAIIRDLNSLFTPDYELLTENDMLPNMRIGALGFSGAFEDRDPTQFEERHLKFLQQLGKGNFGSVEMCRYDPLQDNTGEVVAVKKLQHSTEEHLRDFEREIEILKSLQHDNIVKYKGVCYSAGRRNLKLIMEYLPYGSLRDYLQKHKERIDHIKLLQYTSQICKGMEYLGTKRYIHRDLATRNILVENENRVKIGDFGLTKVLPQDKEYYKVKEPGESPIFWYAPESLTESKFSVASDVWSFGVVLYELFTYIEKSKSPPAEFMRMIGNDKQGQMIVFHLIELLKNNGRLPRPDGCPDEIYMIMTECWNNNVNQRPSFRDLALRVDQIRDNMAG

MCF7 [3] = assay: Induction of cell cycle arrest in human MCF7 cells at G2/M phase assessed as decrease in CDK1 level incubated for 24 hrs by Western blot analysis; type: functional, cell-based; details: dose <= 3.0 µM
Vero = assay: Antiproliferative activity against African green monkey Vero cells assessed as inhibition of cell viability by MTT assay; type: toxicity, cell-based; details: chlorocebus sabaeus
[4] = target: T1, Dual specificity protein kinase TTK (Homo sapiens) (UniProt P33981); assay: Inhibition of Mps1 phosphorylation in mouse 4T1-Luc cells xenografted in BALB/C mouse at 30 to 60 mg/kg, po qd treated for 15 days by IHC analysis; type: organism-based; details: dose 30-60 mg/kg, time 15.0 day
T1 sequence (whole entry): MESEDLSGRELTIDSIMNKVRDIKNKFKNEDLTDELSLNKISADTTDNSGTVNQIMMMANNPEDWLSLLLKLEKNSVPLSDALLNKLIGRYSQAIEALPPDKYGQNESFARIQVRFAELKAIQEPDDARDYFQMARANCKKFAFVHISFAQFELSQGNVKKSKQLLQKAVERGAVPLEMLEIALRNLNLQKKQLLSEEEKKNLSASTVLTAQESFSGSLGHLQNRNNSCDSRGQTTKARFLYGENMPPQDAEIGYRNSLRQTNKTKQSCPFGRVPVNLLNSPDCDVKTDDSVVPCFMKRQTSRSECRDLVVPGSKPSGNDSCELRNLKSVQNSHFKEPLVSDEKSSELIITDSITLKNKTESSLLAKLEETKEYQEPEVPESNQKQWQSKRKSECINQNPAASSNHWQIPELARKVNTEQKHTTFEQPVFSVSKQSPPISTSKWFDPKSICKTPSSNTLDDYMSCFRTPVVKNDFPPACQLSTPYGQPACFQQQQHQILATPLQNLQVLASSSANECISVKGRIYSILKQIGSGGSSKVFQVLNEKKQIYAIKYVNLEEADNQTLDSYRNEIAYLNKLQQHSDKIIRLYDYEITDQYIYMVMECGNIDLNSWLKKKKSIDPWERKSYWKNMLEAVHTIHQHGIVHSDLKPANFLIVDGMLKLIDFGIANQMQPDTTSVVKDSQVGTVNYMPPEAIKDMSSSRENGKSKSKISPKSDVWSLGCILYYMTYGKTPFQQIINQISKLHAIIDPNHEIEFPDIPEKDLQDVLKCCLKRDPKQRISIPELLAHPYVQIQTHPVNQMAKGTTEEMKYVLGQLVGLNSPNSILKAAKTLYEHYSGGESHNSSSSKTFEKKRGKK

GES1 = assay: Antiproliferative activity against human GES1 cells assessed as inhibition of cell viability by MTT assay; type: toxicity, cell-based
[5] = Toxicity in BALB/C mouse xenografted with mouse 4T1-Luc cells assessed as change in blood biochemical parameters at 30 to 60 mg/kg, po qd treated for 15 days; type: organism-based; details: in vivo, 360 h, dose 30-60 mg/kg, time 15 day
MCF7 [6] = assay: Induction of apoptosis in human MCF7 cells assessed as necrotic cells at 5 uM incubated for 48 hrs by Annexin V-FITC/PI staining based flow cytometry (reference value: 0.03 %); type: functional
[7] = target: Cytoplasmic tyrosine-protein kinase BMX (Homo sapiens) (UniProt P51813); assay: Inhibition of human Bmx at 1 uM by KINOMEscan assay relative to control
Chain of Cytoplasmic tyrosine-protein kinase BMX (Homo sapiens) (P51813 whole entry): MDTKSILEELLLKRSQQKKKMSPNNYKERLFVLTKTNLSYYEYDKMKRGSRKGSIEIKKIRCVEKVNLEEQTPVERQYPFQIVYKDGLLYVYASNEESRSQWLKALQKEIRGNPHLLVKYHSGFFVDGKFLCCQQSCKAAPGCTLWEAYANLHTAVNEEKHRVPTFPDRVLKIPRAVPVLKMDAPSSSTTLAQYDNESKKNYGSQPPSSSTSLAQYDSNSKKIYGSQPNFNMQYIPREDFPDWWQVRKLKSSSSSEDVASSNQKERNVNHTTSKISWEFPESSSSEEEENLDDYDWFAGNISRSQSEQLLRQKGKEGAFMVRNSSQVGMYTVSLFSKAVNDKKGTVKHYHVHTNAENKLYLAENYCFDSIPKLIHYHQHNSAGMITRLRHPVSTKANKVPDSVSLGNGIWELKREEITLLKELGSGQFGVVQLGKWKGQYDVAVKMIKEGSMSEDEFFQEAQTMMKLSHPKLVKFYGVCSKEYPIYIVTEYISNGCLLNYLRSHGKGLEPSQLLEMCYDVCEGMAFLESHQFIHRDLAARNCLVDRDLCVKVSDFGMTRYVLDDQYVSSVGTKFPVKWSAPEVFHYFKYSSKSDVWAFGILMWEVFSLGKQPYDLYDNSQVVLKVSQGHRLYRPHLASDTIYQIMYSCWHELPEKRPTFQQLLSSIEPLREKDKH

[8] = Toxicity in BALB/C mouse xenografted with mouse 4T1-Luc cells assessed as body weight change at 30 to 60 mg/kg, po qd treated for 15 days; type: organism-based; details: in vivo, 360 h, dose 30-60 mg/kg, time 15 day
4T1-Luc = assay: Induction of DNA damage in mouse 4T1-Luc cells xenografted in BALB/C mouse assessed as increase in gamma-H2AX level at 30 to 60 mg/kg, po qd treated for 15 days by IHC analysis; type: functional, organism-based; details: dose 30-60 mg/kg, time 15.0 day
4T1 [9] = assay: Induction of apoptosis in 4T1 cells assessed as necrotic cells at 0.5 uM incubated for 48 hrs by Annexin V-FITC/PI staining based flow cytometry (reference value: 0.20 %); type: functional, Mus musculus
A549 = assay: Antiproliferative activity against human A549 cells assessed as inhibition of cell viability upto 10 uM incubated for 72 hrs by MTT assay; type: functional, cell-based
MCF7 [10] = assay: Induction of apoptosis in human MCF7 cells assessed as necrotic cells at 0.5 uM incubated for 48 hrs by Annexin V-FITC/PI staining based flow cytometry (reference value: 0.03 %); type: functional
[11] = target: Cytoplasmic tyrosine-protein kinase BMX (Homo sapiens) (UniProt P51813); assay: Inhibition of human Bmx at 0.1 uM by KINOMEscan assay relative to control
[12] = target: Angiopoietin-1 receptor (Homo sapiens) (UniProt Q02763); assay: Inhibition of human Tie2 at 1 uM by KINOMEscan assay relative to control
Chain of Angiopoietin-1 receptor (Homo sapiens) (Q02763 whole entry): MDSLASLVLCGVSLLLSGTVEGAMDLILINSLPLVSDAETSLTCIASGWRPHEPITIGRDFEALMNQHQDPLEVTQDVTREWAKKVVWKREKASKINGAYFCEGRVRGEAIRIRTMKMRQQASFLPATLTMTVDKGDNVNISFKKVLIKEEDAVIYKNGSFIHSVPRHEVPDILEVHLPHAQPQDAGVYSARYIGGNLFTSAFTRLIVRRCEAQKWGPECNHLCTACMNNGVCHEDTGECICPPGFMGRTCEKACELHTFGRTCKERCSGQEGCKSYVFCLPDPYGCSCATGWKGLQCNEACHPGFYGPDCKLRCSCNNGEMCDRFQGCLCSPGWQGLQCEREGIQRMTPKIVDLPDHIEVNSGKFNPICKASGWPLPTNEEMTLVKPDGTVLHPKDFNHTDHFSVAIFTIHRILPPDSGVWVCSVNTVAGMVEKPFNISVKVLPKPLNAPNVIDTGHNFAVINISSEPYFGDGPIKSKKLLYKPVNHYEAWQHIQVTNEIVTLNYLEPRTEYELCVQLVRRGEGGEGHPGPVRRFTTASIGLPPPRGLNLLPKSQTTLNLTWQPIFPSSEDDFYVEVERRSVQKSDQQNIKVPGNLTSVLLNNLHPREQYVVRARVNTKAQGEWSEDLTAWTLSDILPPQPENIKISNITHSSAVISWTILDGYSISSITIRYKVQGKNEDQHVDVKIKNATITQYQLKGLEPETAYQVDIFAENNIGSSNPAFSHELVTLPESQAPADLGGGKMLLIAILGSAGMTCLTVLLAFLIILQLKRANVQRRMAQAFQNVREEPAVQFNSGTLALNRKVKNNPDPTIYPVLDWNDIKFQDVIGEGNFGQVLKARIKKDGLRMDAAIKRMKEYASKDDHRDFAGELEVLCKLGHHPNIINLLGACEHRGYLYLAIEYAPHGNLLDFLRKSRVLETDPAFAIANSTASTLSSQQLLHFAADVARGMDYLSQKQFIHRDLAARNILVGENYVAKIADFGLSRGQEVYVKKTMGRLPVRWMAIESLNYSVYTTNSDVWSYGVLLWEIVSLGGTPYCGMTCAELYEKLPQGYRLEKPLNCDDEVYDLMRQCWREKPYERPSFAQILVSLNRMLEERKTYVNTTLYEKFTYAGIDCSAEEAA

L02 = assay: Antiproliferative activity against human L02 cells assessed as inhibition of cell viability by MTT assay; type: toxicity, cell-based
4T1 [13] = assay: Antiproliferative activity against 4T1 cells assessed as inhibition of cell viability upto 10 uM by MTT assay; type: functional, cell-based; details: Mus musculus, time 24-72 hrs, TDE = time-dependent effect
[14] = Toxicity in BALB/C mouse xenografted with mouse 4T1-Luc cells assessed as histological change in kidneys at 30 to 60 mg/kg, po qd treated for 15 days by H and E staining based analysis; type: organism-based; details: in vivo, 360 h, dose 30-60 mg/kg, time 15 day
[15] = Toxicity in BALB/C mouse xenografted with mouse 4T1-Luc cells assessed as histological change in liver at 30 to 60 mg/kg, po qd treated for 15 days by H and E staining based analysis; type: organism-based; details: in vivo, 360 h, dose 30-60 mg/kg, time 15 day
HEK293 = assay: Antiproliferative activity against HEK293 cells assessed as inhibition of cell viability by MTT assay; type: toxicity, cell-based; details: human
[16] = Antitumor activity against mouse 4T1-Luc cells xenografted in BALB/C mouse assessed as reduction in mean tumor weight at 60 mg/kg, po qd treated for 15 days (reference value: 3.56 g); type: functional; details: time 15 day
[17] = target: ALK tyrosine kinase receptor (Homo sapiens) (UniProt Q9UM73); assay: Inhibition of human ALK at 0.1 uM by KINOMEscan assay relative to control
Chain of ALK tyrosine kinase receptor (Homo sapiens) (Q9UM73 19-1620 limits assumed): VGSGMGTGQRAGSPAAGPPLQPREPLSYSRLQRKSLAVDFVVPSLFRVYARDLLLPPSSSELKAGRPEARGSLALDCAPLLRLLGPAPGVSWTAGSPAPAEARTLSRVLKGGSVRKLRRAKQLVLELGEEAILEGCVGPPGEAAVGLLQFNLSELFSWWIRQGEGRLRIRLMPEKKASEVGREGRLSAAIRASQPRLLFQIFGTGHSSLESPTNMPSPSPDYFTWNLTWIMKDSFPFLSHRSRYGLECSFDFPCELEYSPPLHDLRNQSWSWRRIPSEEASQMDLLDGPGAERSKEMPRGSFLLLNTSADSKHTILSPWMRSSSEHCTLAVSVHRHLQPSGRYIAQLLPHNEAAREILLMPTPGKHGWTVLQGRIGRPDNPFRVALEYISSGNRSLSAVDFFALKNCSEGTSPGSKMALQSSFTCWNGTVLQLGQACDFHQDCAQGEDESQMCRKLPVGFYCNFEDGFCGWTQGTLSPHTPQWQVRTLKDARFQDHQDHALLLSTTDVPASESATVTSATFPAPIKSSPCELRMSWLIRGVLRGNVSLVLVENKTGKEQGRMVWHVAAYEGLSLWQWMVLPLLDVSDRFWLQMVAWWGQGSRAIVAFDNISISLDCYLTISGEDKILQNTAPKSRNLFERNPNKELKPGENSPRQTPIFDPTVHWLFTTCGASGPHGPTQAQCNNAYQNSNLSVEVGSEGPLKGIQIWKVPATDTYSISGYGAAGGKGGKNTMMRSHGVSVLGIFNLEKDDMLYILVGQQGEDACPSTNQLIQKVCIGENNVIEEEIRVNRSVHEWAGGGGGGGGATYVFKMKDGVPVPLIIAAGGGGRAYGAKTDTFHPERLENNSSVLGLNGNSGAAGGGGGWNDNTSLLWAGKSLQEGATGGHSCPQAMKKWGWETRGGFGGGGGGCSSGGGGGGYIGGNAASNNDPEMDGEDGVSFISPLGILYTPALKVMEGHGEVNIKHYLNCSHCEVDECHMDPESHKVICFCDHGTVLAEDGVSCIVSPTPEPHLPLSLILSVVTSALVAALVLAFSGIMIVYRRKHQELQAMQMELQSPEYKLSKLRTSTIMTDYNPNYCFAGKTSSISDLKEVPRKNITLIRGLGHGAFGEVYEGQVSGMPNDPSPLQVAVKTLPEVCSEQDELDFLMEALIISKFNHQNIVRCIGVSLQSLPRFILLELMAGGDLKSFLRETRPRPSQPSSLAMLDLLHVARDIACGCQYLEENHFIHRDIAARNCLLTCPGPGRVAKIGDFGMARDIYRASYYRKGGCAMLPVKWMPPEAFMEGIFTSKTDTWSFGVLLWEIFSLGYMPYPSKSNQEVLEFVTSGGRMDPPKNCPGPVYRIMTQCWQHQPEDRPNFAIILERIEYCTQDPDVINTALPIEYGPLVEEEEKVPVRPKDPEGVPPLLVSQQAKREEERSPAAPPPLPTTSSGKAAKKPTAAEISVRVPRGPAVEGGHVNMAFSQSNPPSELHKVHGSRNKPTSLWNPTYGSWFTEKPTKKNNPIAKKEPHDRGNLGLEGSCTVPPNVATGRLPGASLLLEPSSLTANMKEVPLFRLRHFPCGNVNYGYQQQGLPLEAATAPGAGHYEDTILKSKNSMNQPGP

HCT-116 = assay: Antiproliferative activity against human HCT-116 cells assessed as inhibition of cell viability by MTT assay; type: functional, cell-based
4T1 [18] = assay: Induction of apoptosis in 4T1 cells assessed as late apoptotic cells at 0.5 uM incubated for 48 hrs by Annexin V-FITC/PI staining based flow cytometry (reference value: 1.73 %); type: functional, Mus musculus
HEY = assay: Antiproliferative activity against human HEY cells assessed as inhibition of cell viability by MTT assay; type: functional, cell-based
4T1 [19] = assay: Induction of apoptosis in 4T1 cells assessed as necrotic cells at 5 uM incubated for 48 hrs by Annexin V-FITC/PI staining based flow cytometry (reference value: 0.20 %); type: functional, Mus musculus

CN1CCN(c2ccc(Nc3nc(-n4nc(N)c5ccccc54)c4cc[nH]c4n3)cc2)CC1
Activity (4T1 [1]): 1.61%
inhibition [2]: 95%
Activity (MCF7 [3]): Dose-Dependent Effect
Activity (Vero): Non-Toxic
inhibition [4]: Active
Activity (GES1): Non-Toxic
Activity [5]: Non-Toxic
Activity (MCF7 [6]): 0.38%
inhibition [7]: 95%
Activity [8]: Non-Toxic
Activity (4T1-Luc): Active
Activity (4T1 [9]): 0.7%
inhibition (A549): Active
Activity (MCF7 [10]): 0.17%
inhibition [11]: 55%
inhibition [12]: 92%
Activity (L02): Non-Toxic
inhibition (4T1 [13]): Tde
Activity [14]: Non-Toxic
Activity [15]: Non-Toxic
Activity (HEK293): Non-Toxic
Activity [16]: 0.97 g
inhibition [17]: 86%
IC50 (HCT-116): 1060 nM
Activity (4T1 [18]): 5.41%
IC50 (HEY): > 3000 nM
Activity (4T1 [19]): 0.32%
